In patent US6472348B1, “Pyridone derivatives and herbicides” (Kumiai Chemical Industry Co., Ltd., priority 1996, dated 2002):

What was measured:
Format in all cases: in vivo
[1] = test system: barnyardgrass (Ec); assay: Test Example 1: herbicidal effects by paddy field soil treatment; details: 100 g of the active ingredient per 10 ares, 21st day after the application, index 0-5 of Table 47;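 also: grade of growth control; 5 = at least 90%; 4 = 70 to 90%; 3 = 50 to 70%; 2 = 30 to 50%; 1 = 10 to 30%; 0 = under 10%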
In short: (§1)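 Scoring of herbicidal effect came 21 days after application of 100 g active ingredient per 10 ares to flooded (3 cm) paddy-soil pots sown with barnyardgrass, monochoria and bulrush, kept in a greenhouse.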

[2] = test system: bulrush (Sc); assay: as above; details: 100 g of the active ingredient per 10 ares, 21st day after the application, index 0-5 of Table 47;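 also: grade of growth control; 5 = at least 90%; 4 = 70 to 90%; 3 = 50 to 70%; 2 = 30 to 50%; 1 = 10 to 30%; 0 = under 10%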
In short: as §1

[3] = test system: monochoria (Mo); assay: as above; details: 100 g of the active ingredient per 10 ares, 21st day after the application, index 0-5 of Table 47;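 also: grade of growth control; 5 = at least 90%; 4 = 70 to 90%; 3 = 50 to 70%; 2 = 30 to 50%; 1 = 10 to 30%; 0 = under 10%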
In short: as §1

[4] = test system: Digitaria ciliaris (Di); assay: Test Example 2: herbicidal effects by upland field soil treatment; details: 100 g of the active ingredient per 10 ares;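 also: grade of growth control; 5 = at least 90%; 4 = 70 to 90%; 3 = 50 to 70%; 2 = 30 to 50%; 1 = 10 to 30%; 0 = under 10%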
Text: (§2) (Test on Herbicidal Effects by Upland Field Soil Treatment)

[5] = test system: barnyardgrass (Ec); assay: as above; details: 100 g of the active ingredient per 10 ares
Text: as §2

[6] = test system: common lambsquarters (Ch); assay: as above; details: 100 g of the active ingredient per 10 ares
Text: as §2

[7] = test system: pale smartweed (Po); assay: as above; details: 100 g of the active ingredient per 10 ares
Text: as §2

[8] = test system: rice flatsedge (Ci); assay: as above; details: 100 g of the active ingredient per 10 ares
Text: as §2

[9] = test system: slender amaranth (Am); assay: as above; details: 100 g of the active ingredient per 10 ares
Text: as §2

[10] = test system: Diaitaria ciliaris (Di); assay: Test Example 3: herbicidal effects by upland field foliage treatment; set-up: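 grade of growth control; 5 = at least 90%; 4 = 70 to 90%; 3 = 50 to 70%; 2 = 30 to 50%; 1 = 10 to 30%; 0 = under 10%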; details: 100 g of the active ingredient per 10 ares, evaluated on the 14th day after treatment
In short: (§3)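 Weeds were sown in sand-filled pots (surface area: 120 cm^2), covered with soil and grown in a greenhouse for 2 weeks before foliar treatment. Plants then stayed in the greenhouse, and herbicidal effect was scored against graded standards on the 14th day after treatment.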

[11] = test system: barnyardgrass (Ec); assay: as above; set-up: scale not given here; details: 100 g of the active ingredient per 10 ares, evaluated on the 14th day after treatment
In short: as §3

[12] = test system: common lambsquarters (Ch); assay: as above; set-up: scale not given here; details: 100 g of the active ingredient per 10 ares, evaluated on the 14th day after treatment
In short: as §3

[13] = test system: pale smartweed (Po); assay: as above; set-up: scale not given here; details: 100 g of the active ingredient per 10 ares, evaluated on the 14th day after treatment
In short: as §3

[14] = test system: rice flatsedge (Ci); assay: as above; set-up: scale not given here; details: 100 g of the active ingredient per 10 ares, evaluated on the 14th day after treatment
In short: as §3

[15] = test system: slender amaranth (Am); assay: as above; set-up: scale not given here; details: 100 g of the active ingredient per 10 ares, evaluated on the 14th day after treatment
In short: as §3

[16] = test system: cotton (Go); assay: Test Example 4: crop plant selectivity by upland field soil treatment (cotton), phytotoxicity; set-up: scale not given here; details: dose 6.3 g ai/10 a, evaluated 21st day after application
Method: (§4) (Test on Crop Plant Selectivity by Upland Field Soil Treatment)
(§5) In a plastic pot (surface area: 600 cm^2) filled with sand, cotton (Go), Diaitaria ciliaris (Di), green foxtail (Se), pale smartweed (Po), slender amaranth (Am), common lambsquarters (Ch) and China jute (Ab) were sown and covered with soil. […] The plants were then cultured in a green house, and the evaluation of the herbicidal effects and phytotoxicity was conducted on the 21st day after the application in accordance with the standards as identified in Table 47. Symbol—represents “not tested”.

[17] = test system: China jute (Ab); assay: Test Example 4: crop plant selectivity by upland field soil treatment (cotton), herbicidal effects; set-up: scale not given here; details: dose 6.3 g ai/10 a, evaluated 21st day after application
Method: as §4, §5

[18] = test system: common lambsquarters (Ch); assay: as above; set-up: scale not given here; details: dose 6.3 g ai/10 a, evaluated 21st day after application
Method: as §4, §5

[19] = test system: green foxtail (Se); assay: as above; set-up: scale not given here; details: dose 6.3 g ai/10 a, evaluated 21st day after application
Method: as §4, §5

[20] = test system: pale smartweed (Po); assay: as above; set-up: scale not given here; details: dose 6.3 g ai/10 a, evaluated 21st day after application
Method: as §4, §5

[21] = test system: slender amaranth (Am); assay: as above; set-up: scale not given here; details: dose 6.3 g ai/10 a, evaluated 21st day after application
Method: as §4, §5

[22] = test system: wheat (Tr); assay: Test Example 5: crop plant selectivity by upland field soil treatment (wheat), phytotoxicity; set-up: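 grade of crop injury; 5 = at least 90%; 4 = 70 to 90%; 3 = 50 to 70%; 2 = 30 to 50%; 1 = 10 to 30%; 0 = under 10%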; details: dose 6.3 g ai/10a, 21st day after application
Method: as §4
(§6) In a plastic pot (surface area: 600 cm^2) filled with sand, wheat (Tr), Diaitaria ciliaris (Di), green foxtail (Se), pale smartweed (Po), slender amaranth (Am), common lambsquarters (Ch) and China jute (Ab) were sown and covered with soil. […] The plants were then cultured in a green house, and the evaluation of the herbicidal effects and phytotoxicity was conducted on the 21st day after the application in accordance with the standards as identified in Table 47. Symbol—represents “not tested”.

[23] = test system: China jute (Ab); assay: Test Example 5: crop plant selectivity by upland field soil treatment (wheat), herbicidal effects; set-up: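 grade of growth control; 5 = at least 90%; 4 = 70 to 90%; 3 = 50 to 70%; 2 = 30 to 50%; 1 = 10 to 30%; 0 = under 10%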; details: dose 6.3 g ai/10a, 21st day after application
Method: as §4, §6

[24] = test system: common lambsquarters (Ch); assay: as above; set-up: scale not given here; details: dose 6.3 g ai/10a, 21st day after application
Method: as §4, §6

[25] = test system: green foxtail (Se); assay: as above; set-up: scale not given here; details: dose 6.3 g ai/10a, 21st day after application
Method: as §4, §6

[26] = test system: pale smartweed (Po); assay: as above; set-up: scale not given here; details: dose 6.3 g ai/10a, 21st day after application
Method: as §4, §6

[27] = test system: slender amaranth (Am); assay: as above; set-up: scale not given here; details: dose 6.3 g ai/10a, 21st day after application
Method: as §4, §6

[28] = test system: soybean (Gl); assay: Test Example 6: crop plant selectivity by upland field soil treatment (soybean), phytotoxicity; set-up: scale not given here; details: dose 6.3 g ai/10a, 21st day after application
Method: as §4
(§7) In a plastic pot (surface area: 600 cm^2) filled with sand, soybean (Gl), Diaitaria ciliaris (Di), green foxtail (Se), Johnsongrass (So), pale smartweed (Po), slender amaranth (Am), common lambsquarters (Ch) and China jute (Ab) were sown and covered with soil. […] The plants were then cultured in a green house, and the evaluation of the herbicidal effects and phytotoxicity was conducted on the 21st day after the application in accordance with the standards as identified in Table 47. Symbol—represents “not tested”.

[29] = test system: China jute (Ab); assay: Test Example 6: crop plant selectivity by upland field soil treatment (soybean), herbicidal effects; set-up: scale not given here; details: dose 6.3 g ai/10a, 21st day after application
Method: as §4, §7

[30] = test system: common lambsquarters (Ch); assay: as above; set-up: scale not given here; details: dose 6.3 g ai/10a, 21st day after application
Method: as §4, §7

[31] = test system: green foxtail (Se); assay: as above; set-up: scale not given here; details: dose 6.3 g ai/10a, 21st day after application
Method: as §4, §7

[32] = test system: pale smartweed (Po); assay: as above; set-up: scale not given here; details: dose 6.3 g ai/10a, 21st day after application
Method: as §4, §7

[33] = test system: slender amaranth (Am); assay: as above; set-up: scale not given here; details: dose 6.3 g ai/10a, 21st day after application
Method: as §4, §7

[34] = test system: corn (Ze); assay: Test Example 7: crop plant selectivity by upland field soil treatment (corn), phytotoxicity; set-up: scale not given here; details: dose 6.3 g ai/10a, 21st day after application
Method: as §4
(§8) In a plastic pot (surface area: 600 cm^2) filled with sand, corn (Ze), green foxtail (Se), pale smartweed (Po), slender amaranth (Am), common lambsquarters (Ch) and China jute (Ab) were sown and covered with soil. […] The plants were then cultured in a green house, and the evaluation of the herbicidal effects and phytotoxicity was conducted on the 21st day after the application in accordance with the standards as identified in Table 47.

[35] = test system: China jute (Ab); assay: Test Example 7: crop plant selectivity by upland field soil treatment (corn), herbicidal effects; set-up: scale not given here; details: dose 6.3 g ai/10a, 21st day after application
Method: as §4, §8

[36] = test system: common lambsquarters (Ch); assay: as above; set-up: scale not given here; details: dose 6.3 g ai/10a, 21st day after application
Method: as §4, §8

[37] = test system: green foxtail (Se); assay: as above; set-up: scale not given here; details: dose 6.3 g ai/10a, 21st day after application
Method: as §4, §8

[38] = test system: pale smartweed (Po); assay: as above; set-up: scale not given here; details: dose 6.3 g ai/10a, 21st day after application
Method: as §4, §8

[39] = test system: slender amaranth (Am); assay: as above; set-up: scale not given here; details: dose 6.3 g ai/10a, 21st day after application
Method: as §4, §8

[40] = 21st day after the application, index 0-5 of Table 47
[41] = evaluated on the 21st day after application

Compound | Herbicidal effects Ec [1] | Herbicidal effects Sc [2] | Herbicidal effects Mo [3] | Herbicidal effects Di [10] | Herbicidal effects Ec [11] | Herbicidal effects Ch [12] | Herbicidal effects Po [13] | Herbicidal effects Ci [14] | Herbicidal effects Am [15] | Phytotoxicity Go [16] | Herbicidal effects Ab [17] | Herbicidal effects Ch [18] | Herbicidal effects Se [19] | Herbicidal effects Po [20] | Herbicidal effects Am [21] | further results
C=C(C)COc1cc(-c2ccc(C(F)(F)F)n(C)c2=O)c(F)cc1Cl [1-151] | 5 | 5 | 5 | 5 | 5 | 5 | 5 | 5 | 5 | 1 | 5 | 5 | 5 | 5 | 5 | Herbicidal effects Di [4, 40]: 5; Herbicidal effects Ec [5, 40]: 5; Herbicidal effects Ch [6, 40]: 5; Herbicidal effects Po [7, 40]: 5; Herbicidal effects Ci [8, 40]: 5; Herbicidal effects Am [9, 40]: 5; Phytotoxicity Tr [22]: 2; Herbicidal effects Ab [23]: 5; Herbicidal effects Ch [24]: 5; Herbicidal effects Se [25]: 5; Herbicidal effects Po [26]: 5; Herbicidal effects Am [27]: 5; Phytotoxicity Gl [28]: 0; Herbicidal effects Ab [29]: 5; Herbicidal effects Ch [30]: 5; Herbicidal effects Se [31]: 5; Herbicidal effects Po [32]: 5; Herbicidal effects Am [33]: 5
Cn1c(C(F)(F)F)ccc(-c2cc(OCCF)c(Cl)cc2F)c1=O [1-172] | 5 | 5 | 5 | 5 | 5 | 5 | 5 | 5 | 5 | 1 | 5 | 5 | 5 | 5 | 5 | Herbicidal effects Di [4, 41]: 5; Herbicidal effects Ec [5, 41]: 5; Herbicidal effects Ch [6, 41]: 5; Herbicidal effects Po [7, 41]: 5; Herbicidal effects Ci [8, 41]: 5; Herbicidal effects Am [9, 41]: 5; Phytotoxicity Ze [34]: 2; Herbicidal effects Ab [35]: 5; Herbicidal effects Ch [36]: 5; Herbicidal effects Se [37]: 5; Herbicidal effects Po [38]: 5; Herbicidal effects Am [39]: 5
